Read-outs that look alike come from different tables or passages of the source.
Legend:
Assay type in all cases: cell-based
[1] = test system: PD1-ss+10aa/Gaussia Luciferase; test: Dox-Induced PD1-ss-Gluc Assay; details: 293FRT/TO cells, read-out: 24 hr Dox Inducible PD1ssGluc 293FRT/TO: Mean IC50
Protocol: (§1) Transfected cells were selected for resistance to the selectable markers Hygromycin and Blasticidin to create a stable cell line that contained the PD1-ss+10aa/Gaussia Luciferase cDNA insert whose expression was regulated under the T-REx™ system. The day before assay, cells were trypsinized and plated in 384-well tissue culture plates. The next day, compound dilutions in DMSO/media containing doxycycline were added to the wells and incubated at 37° C., 5% CO2.
(§2) For chemical structures that include one or more stereoisomers, but are illustrated without indicating stereochemistry, the assay data refers to a mixture of stereoisomers.

[2] = test system: TNFα-FL/Gaussia Luciferase; test: Dox Induced TNFα-FL-Gluc Assay; details: 293FRT/TO cells, read-out: 24 hr Dox Inducible TNFaFLGluc 293FRT/TO: Mean IC50
Protocol: as §1, with “TNFα-FL/Gaussia” for “PD1-ss+10aa/Gaussia”, “T-RExTM” for “T-REx™”, “CO2. […] For chemical structures that include one or more stereoisomers, but are illustrated without indicating stereochemistry, the assay data refers to a mixture of stereoisomers.” for “CO2.”

[3] = test system: HER3-ss+4aa/Gaussia Luciferase; test: Dox-Induced Her3-ss-Gluc Assay; details: 293FRT/TO cells, read-out: 24 hr Dox Inducible Her3(ss + 4)Gluc 293FRT/TO: Mean IC50
Protocol: as §1, with “HER3-ss+4aa/Gaussia” for “PD1-ss+10aa/Gaussia”
as §2

[4] = test system: IL-2-FL/Gaussia Luciferase; test: Dox Induced IL2-FL-Gluc Assay; details: 293FRT/TO cells, read-out: 24 hr Dox Inducible IL2FLGIuc 293FRT/TO: Mean IC50
Protocol: as §1, with “IL-2-FL/Gaussia” for “PD1-ss+10aa/Gaussia”, “T-RExTM” for “T-REx™”, “CO2. […] For chemical structures that include one or more stereoisomers, but are illustrated without indicating stereochemistry, the assay data refers to a mixture of stereoisomers.” for “CO2.”

[5] = test system: human multiple myeloma cell line NCI-H929; test: H929 Cell Viability Assay; details: 48 hr, NCI-H929 cells, Celltiter-Glo, read-out: 48 hr H929 Viability Celltiter-Glo: Mean EC50
Protocol: (§3) Plates were incubated at 37° C., 5% CO2 for 48 hours. After 48 hours, Celltiter-Glo® (Promega) was added to each well and luciferase signal was quantified using Tecan Infinite M1000 Pro for cell viability determination.
as §2

[6] = test system: human multiple myeloma cell line U266B1; test: U266 Cell Viability Assay; details: U-266, 48 hr, U266B1 cells, Celltiter-Glo, read-out: 48 hr U266 Viability Celltiter-Glo: Mean EC50
Protocol: as §3, with “Cells were plated in 384-well tissue culture plates and treated with compound dilutions in DMSO/media. Plates” for “Plates”
as §2

[7] = 24 hr doxycycline induction, Gaussia luciferase signal

SMILES	IC50 [1, 7] [µM]	IC50 [2, 7] [µM]	IC50 [3, 7] [µM]	IC50 [4, 7] [µM]	EC50 [5] [µM]	EC50 [6] [µM]	IC50 ([1]; 24 hr, doxycycline-induced) [µM]	IC50 ([2]; 24 hr, doxycycline-induced) [µM]	IC50 ([3]; 24 hr, doxycycline-induced) [µM]	IC50 ([4]; 24 hr, doxycycline-induced) [µM]
COc1cnc(NC(=O)c2cccn2Cc2ccncc2)s1 [Compound A82]	4.66	> 25	> 25	> 25	> 25	> 25				
O=C(Nc1nc(C2CCC(c3ccccc3)CC2)cs1)c1cccn1Cc1ccncc1 (stereo not drawn) [Compound A255]	0.102	1.33	0.25	0.477	7.21	18.1				
O=C(Nc1nc2c(s1)CCC2)c1cccn1Cc1ccncc1 [Compound A56]	1.42	> 25	5.31	6.47	> 25	> 25				
CC(C)OC(C)(C)c1csc(NC(=O)c2cccn2CCOc2ccncc2)n1 [Compound A226, N-(4-(2-isopropoxypropan-2-yl)thiazol-2-yl)-1-(2-(pyridin-4-yloxy)ethyl)-1H-pyrrole-2-carboxamide]	0.302	7.08	0.426	0.32	11.9	> 25				
O=C(Nc1nc([C@H]2C[C@H](c3ccccn3)C2)cs1)c1cccn1Cc1ccncc1 [Compound A350]					> 25	> 25	0.707	14.9	2.39	> 25
O=C(Nc1ncc(Cc2ccccc2)s1)c1cccn1Cc1ccncc1 [Compound A34, N-(5-benzylthiazol-2-yl)-1-(pyridin-4-ylmethyl)-1H-pyrrole-2-carboxamide]	0.674	> 25	2.42	4.24	> 25	> 25				
CCc1nc(NC(=O)c2cccn2Cc2ccncc2Cl)sc1C [Compound A66, 1-((3-chloropyridin-4-yl)methyl)-N-(4-ethyl-5-methylthiazol-2-yl)-1H-pyrrole-2-carboxamide]	1.84	> 25	4.15	4.78	> 25	> 25				
O=C(Nc1nc(/C=C/C2CCOCC2)cs1)c1cccn1Cc1ccncc1 [Compound A153, 1-(pyridin-4-ylmethyl)-N-(4-(2-(tetrahydro-2H-pyran-4-yl)vinyl)thiazol-2-yl)-1H-pyrrole-2-carboxamide]	0.902	> 25	1.55	4.07	> 25	> 25				
CC(C)c1cnc(NC(=O)c2cccn2Cc2ccncc2)s1 [Compound A55]	1.39	> 25	3.16	3.99	> 25	> 25				
CC(C)OC(C)(C)c1csc(NC(=O)c2cc(C(=O)N(C)C)cn2Cc2ccncc2)n1 [Compound A111, N2-(4-(2-isopropoxypropan-2-yl)thiazol-2-yl)-N4,N4-dimethyl-1-(pyridin-4-ylmethyl)-1H-pyrrole-2,4-dicarboxamide]	> 25	> 25	> 25	> 25	> 25	> 25				
N#Cc1ccc(/C=C/c2csc(NC(=O)c3cccn3Cc3ccncc3)n2)nc1 [Compound A341]					> 25	> 25	0.047	> 25	> 25	> 25
CC(C)OC(C)(C)c1csc(NC(=O)c2cccn2CC2CCOCC2)n1 [Compound A71]	2.28	> 25	5.44	3.54	> 25	> 25				
O=C(Nc1nc([C@H]2CCCN2c2ccc3c(c2)OC(F)(F)O3)cs1)c1cccn1Cc1ccncc1 [Compound A328]					0.381	16.5	0.009	0.105	0.012	0.014
CNC(=O)c1cnc(NC(=O)c2cccn2Cc2ccncc2)s1 [Compound B16]					> 25	> 25	> 25	> 25	> 25	> 25
CC(C)(/C=C/c1ccccc1)c1csc(NC(=O)c2cccn2Cc2ccncc2)n1 [Compound A293, N-(4-(2-methyl-4-phenylbut-3-en-2-yl)thiazol-2-yl)-1-(pyridin-4-ylmethyl)-1H-pyrrole-2-carboxamide]					11.4	> 25	0.367	3.65	0.632	0.619
COc1ccc(/C=C/c2csc(NC(=O)c3cccn3Cc3ccncc3)n2)nc1 [Compound A269, N-(4-(2-(5-methoxypyridin-2-yl)vinyl)thiazol-2-yl)-1-(pyridin-4-ylmethyl)-1H-pyrrole-2-carboxamide]	0.013	20.3	1.57	2.92	> 21.6	> 25				
O=C(Nc1nc(C2Cc3ccccc3C2)cs1)c1cccn1Cc1ccncc1 [Compound A281]	0.244	1.95	0.817	1.16	11	> 25				
O=C(Nc1nc([C@H]2CC[C@@H](c3ccccc3)C2)cs1)c1cccn1Cc1ccncc1 (stereo in doubt) [Compound A305, N-(4-((1S,3R)-3-phenylcyclopentyl)thiazol-2-yl)-1-(pyridin-4-ylmethyl)-1H-pyrrole-2-carboxamide]					12.4	> 25	0.196	2.18	0.414	0.657
CC(C)OC(C)(C)c1csc(NC(=O)c2ccccc2N2CCOCC2)n1 [Compound A340]					> 25	> 25	> 25	> 25	> 25	> 25
O=C(Nc1nc(-c2ccccc2)cs1)c1cccn1Cc1ccncc1 [Compound A216, N-(4-phenylthiazol-2-yl)-1-(pyridin-4-ylmethyl)-1H-pyrrole-2-carboxamide]	0.318	18.8	1.91	1.56	> 25	> 25				
O=C(Nc1nc([C@H]2CCCN2c2ccccn2)cs1)c1cccn1Cc1ccncc1 [Compound A317]					2.54	> 25	0.025	0.427	0.064	0.057
O=C(Nc1nc([C@@H]2COCCN2c2ccccc2)cs1)c1cccn1Cc1ccncc1 [Compound A337]					21.5	> 25	0.19	2.85	0.548	0.379
CC(C)(O)c1cnc(NC(=O)c2cccn2Cc2ccncc2)s1 [Compound A89]	9.85	> 25	> 25	> 25	> 25	> 25				
CN(C)Cc1csc(NC(=O)c2cccn2Cc2ccncc2)n1 [Compound B19]					> 25	> 25	> 25	> 25	> 25	> 25
